Measurements from PMC6556873, “Rapid Covalent-Probe Discovery by Electrophile-Fragment Screening” (Journal of the American Chemical Society, 2019).
Like-named read-outs stand apart in the source and are kept apart here.

Columns and labels:
in vitro [1] = assay: in vitro; design: species or system HB2, CCD841; settings: human, hek293 cells
NUDT7 = target: T1, NUDT7 (Homo sapiens, UniProt P0C024); design: Intact protein LC/MS covalent labelling, fragments in pools of five, 200 uM each, 4 °C; settings: 24 h, 4 °C, pool of five; 200 µM; covalent
T1 construct: residues 14-235, E. coli, pNIC28-Bsa4, N-terminal His6 tag removed by TEV, construct 26672 Da

OTUB2 (OTUB2A) = target: T2, OTUB2 (OTUB2A) (Homo sapiens, UniProt Q96DC9); design: Intact protein LC/MS covalent labelling, fragments in pools of five, 200 uM each, 4 °C; settings: 24 h, 4 °C, pool of five; 200 µM; covalent
T2 construct: full length residues 1-234, E. coli BL21(DE3)-R3, His tag removed by TEV, construct 27312 Da
T2 sequence (Q96DC9 1-234): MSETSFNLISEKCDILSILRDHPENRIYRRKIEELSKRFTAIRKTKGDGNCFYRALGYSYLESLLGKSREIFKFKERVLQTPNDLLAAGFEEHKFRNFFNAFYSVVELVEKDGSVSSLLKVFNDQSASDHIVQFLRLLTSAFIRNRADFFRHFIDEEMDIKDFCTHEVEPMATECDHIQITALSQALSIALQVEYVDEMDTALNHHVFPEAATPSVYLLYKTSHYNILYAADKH

PCAF = target: T3, PCAF (Homo sapiens, UniProt Q92831); design: Intact protein LC/MS covalent labelling, fragments in pools of five, 200 uM each, 4 °C; settings: 24 h, 4 °C, pool of five; 200 µM; covalent
T3 construct: gene KAT2B

NNMT (hNNMT) = target: T4, NNMT (hNNMT) (Homo sapiens, UniProt P40261); design: Intact protein LC/MS covalent labelling, fragments in pools of five, 200 uM each, 4 °C; settings: 24 h, 4 °C, pool of five; 200 µM; covalent
T4 construct: wild type, N-terminal His6 tag kept (no cleavage described), E. coli, construct 31248 Da
T4 sequence (P40261 1-264): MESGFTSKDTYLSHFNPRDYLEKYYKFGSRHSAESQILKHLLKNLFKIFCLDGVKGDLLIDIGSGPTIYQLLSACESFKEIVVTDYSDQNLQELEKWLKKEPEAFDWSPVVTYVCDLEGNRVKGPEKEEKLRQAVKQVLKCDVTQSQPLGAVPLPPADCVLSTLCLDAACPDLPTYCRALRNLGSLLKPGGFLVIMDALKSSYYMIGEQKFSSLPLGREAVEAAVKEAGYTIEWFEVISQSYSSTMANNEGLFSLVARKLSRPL

BSA = target: T5, BSA (Bos taurus, UniProt P02769); design: Intact protein LC/MS covalent labelling, fragments in pools of five, 200 uM each, 4 °C; settings: 24 h, 4 °C, pool of five; 200 µM; covalent
T5 construct: gene ALB

in vitro [2] = assay: in vitro; design: species or system CCD841, HEK293; settings: human, hb2 cells, read-out: HB-2 Cells Viability (%)
in vitro [3] = assay: in vitro; design: species or system HB2, HEK293; settings: human, ccd841 cells

T3 sequence (Q92831 whole entry, the tested form may be a part): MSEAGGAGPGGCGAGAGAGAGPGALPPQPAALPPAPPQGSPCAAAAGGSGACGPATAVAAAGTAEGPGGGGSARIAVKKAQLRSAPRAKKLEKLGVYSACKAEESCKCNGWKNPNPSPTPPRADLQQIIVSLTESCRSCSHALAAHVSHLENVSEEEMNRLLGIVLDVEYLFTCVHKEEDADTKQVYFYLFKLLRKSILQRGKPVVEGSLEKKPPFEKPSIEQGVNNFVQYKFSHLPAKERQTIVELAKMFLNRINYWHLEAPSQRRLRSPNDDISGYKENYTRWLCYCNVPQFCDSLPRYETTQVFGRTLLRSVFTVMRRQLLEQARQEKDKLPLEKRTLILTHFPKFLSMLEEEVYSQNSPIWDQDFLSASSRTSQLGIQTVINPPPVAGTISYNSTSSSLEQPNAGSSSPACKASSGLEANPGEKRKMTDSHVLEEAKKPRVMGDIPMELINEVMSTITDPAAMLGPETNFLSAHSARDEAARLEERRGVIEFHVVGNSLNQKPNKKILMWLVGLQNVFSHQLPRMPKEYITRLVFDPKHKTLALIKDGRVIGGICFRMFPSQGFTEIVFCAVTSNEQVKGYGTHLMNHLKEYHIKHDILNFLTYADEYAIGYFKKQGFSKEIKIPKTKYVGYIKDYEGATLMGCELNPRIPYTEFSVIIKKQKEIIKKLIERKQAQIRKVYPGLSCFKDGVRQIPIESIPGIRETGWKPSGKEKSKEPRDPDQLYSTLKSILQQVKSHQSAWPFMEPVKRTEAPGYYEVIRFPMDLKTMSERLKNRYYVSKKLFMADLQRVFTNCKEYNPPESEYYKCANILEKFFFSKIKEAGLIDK
T5 sequence (P02769 whole entry, the tested form may be a part): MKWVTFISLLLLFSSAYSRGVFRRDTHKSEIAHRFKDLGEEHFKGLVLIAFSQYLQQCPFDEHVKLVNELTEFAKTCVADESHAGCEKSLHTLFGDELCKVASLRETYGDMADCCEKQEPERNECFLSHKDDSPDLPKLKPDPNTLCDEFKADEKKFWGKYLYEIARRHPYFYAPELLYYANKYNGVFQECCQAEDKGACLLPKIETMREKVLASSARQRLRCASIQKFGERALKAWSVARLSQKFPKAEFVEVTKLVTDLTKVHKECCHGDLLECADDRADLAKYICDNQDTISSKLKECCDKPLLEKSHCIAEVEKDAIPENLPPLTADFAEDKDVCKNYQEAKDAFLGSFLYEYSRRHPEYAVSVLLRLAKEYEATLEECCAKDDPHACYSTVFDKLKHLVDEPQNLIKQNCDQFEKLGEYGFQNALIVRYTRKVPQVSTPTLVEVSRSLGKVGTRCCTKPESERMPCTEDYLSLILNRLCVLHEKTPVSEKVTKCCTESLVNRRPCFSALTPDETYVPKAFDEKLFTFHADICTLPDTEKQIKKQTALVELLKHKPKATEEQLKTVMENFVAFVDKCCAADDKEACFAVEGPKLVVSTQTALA
T1 sequence (P0C024 14-235): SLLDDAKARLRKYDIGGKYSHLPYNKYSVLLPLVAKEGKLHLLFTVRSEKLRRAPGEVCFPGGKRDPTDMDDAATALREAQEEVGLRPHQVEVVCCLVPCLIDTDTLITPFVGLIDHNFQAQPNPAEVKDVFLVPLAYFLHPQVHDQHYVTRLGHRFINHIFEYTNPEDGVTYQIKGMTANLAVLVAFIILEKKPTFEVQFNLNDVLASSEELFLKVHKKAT

Row | SMILES | NUDT7 (NUDT7) | OTUB2 (OTUB2 (OTUB2A)) | PCAF (PCAF) | NNMT (NNMT (hNNMT)) | BSA (BSA) | viability at 48 h, 10 µM (in vitro [1]) [%] | viability at 48 h, 10 µM (in vitro [2]) [%] | viability at 48 h, 10 µM (in vitro [3]) [%]
1 | CN(C)C(=O)CN(C)C(=O)CCl [PCM-0102632] | 0 | 0.14 | 0 | 0 | 0 | 89.7 | 102 | 114
2 | C=CC(=O)NC1(c2nnc3n2CCCC3)CCC1 [PCM-0102639] | 0 | 0 | 0 | 0 | 0 | 123 | 101 | 131
3 | C=CC(=O)N1CCc2sccc2C1c1cccs1 (centres unmarked) [PCM-0102640] | 0 | 0 | 0 | 0 | 0 | 98.7 | 97.9 | 115
4 | C=CC(=O)N1CCC(CS(C)(=O)=O)CC1 [PCM-0102651] | 0 | 0 | 0 | 0 | 0 | 100 | 105 | 108
5 | COc1ccc(NC(=O)CCl)cc1Cl [PCM-0102652] | 0.12 | 0.24 | 0 | 0.83 | 0 | 2.6 | 10 | 29.3
6 | Cl.O=C(CCl)Nc1cccnc1 [PCM-0102653] | 0 | 0 | 0 | 0 | 0 | 93.3 | 84.6 | 85.6
7 | O=C(CCl)N1CCC(C(=O)N2CCCC2)CC1 [PCM-0102655] | 0 | 0 | 0 | 0.17 | 0 | 87 | 94 | 78.5
8 | O=C(CCl)Nc1ccccc1 [PCM-0102658] | 0 | 0 | 0 | 0 | 0 | 56.1 | 72 | 67
9 | Cc1ccc(CNC(=O)CCl)cc1 [PCM-0102660] | 0 | 0.63 | 0 | 0 | 0 | 93.6 | 87.4 | 80.3
10 | O=C(CCl)Nc1ccc2c(c1)CCC2 [PCM-0102662] | 0.12 | 0.14 | 0 | 0.22 | 0 | 4.7 | 16.3 | 56.2
11 | CC1CCC2(CC1)NC(=O)N(NC(=O)CCl)C2=O (centres unmarked) [PCM-0102666] | 0 | 0 | 0 | 0 | 0 | 99.9 | 97.3 | 79.9
12 | C=CC(=O)N1CCC2C(CCCN2Cc2ccccc2)C1 (centres unmarked) [PCM-0102673] | 0 | 0 | 0 | 0 | 0 | 85 | 102 | 116
13 | C=CC(=O)N1CCCCC1c1cnn(C)c1 (centres unmarked) [PCM-0102675] | 0.1 | 0 | 0 | 0 | 0 | 88.5 | 95.7 | 103
14 | C=CC(=O)N(C)Cc1c(C)nc2sc(C)cn12 [PCM-0102679] | 0.06 | 0 | 0 | 0.32 | 0 | 83.2 | 103 | 108
15 | C=CC(=O)N1CCCC1C(=O)Nc1nc2ccccc2s1 (centres unmarked) [PCM-0102681] | 0 | 0 | 0 | 0 | 0 | 79.7 | 95.7 | 115
16 | C=CC(=O)N1CCN(C(=O)CN2C(=O)CCC2=O)CC1 [PCM-0102684] | 0.08 | 0 | 0 | 0 | 0 | 105 | 99.9 | 103

Further lines, with some results ahead:

Row | NUDT7 (NUDT7) | OTUB2 (OTUB2 (OTUB2A)) | PCAF (PCAF) | NNMT (NNMT (hNNMT)) | BSA (BSA) | SMILES | viability at 48 h, 10 µM (in vitro [1]) [%] | viability at 48 h, 10 µM (in vitro [2]) [%] | viability at 48 h, 10 µM (in vitro [3]) [%]
17 | 0 | 0 | 0 | 0.17 | 0 | C=CC(=O)N1CC=C(C(F)(F)F)CC1 [PCM-0102685] | 98 | 103 | 105
18 | 0.15 | 0 | 0 | 0.12 | 0 | C=CC(=O)Nc1cc(CC(C)(C)C)nn1C [PCM-0102686] | 75.3 | 102 | 144
19 | 0 | 0 | 0 | 0 | 0 | C=CC(=O)N1CC(c2ccccc2)C2COCCC21 (centres unmarked) [PCM-0102687] | 114 | 103 | 105
20 | 0 | 0 | 0 | 0.76 | 0 | O=C(CCl)NC(=O)NC1CCCCC1 [PCM-0102692] | 62.3 | 48.7 | 70.7
21 | 0.13 | 0 | 0 | 0.13 | 0 | Cc1ccccc1CN(C)C(=O)CCl [PCM-0102707] | 11.6 | 7.9 | 57
22 | 0.09 | 0 | 0 | 0 | 0 | Cc1ccc(Cn2ccsc2=NC(=O)CCl)cc1 [PCM-0102708] | 7.9 | 36 | 3
23 | 0 | 0 | 0 | 0.32 | 0 | CN(CCC#N)C(=O)CCl [PCM-0102712] | 80.3 | 89.4 | 79.6
24 | 0 | 0 | 0 | 0 | 0 | CN(CC1CC1)C(=O)CCl [PCM-0102714] | 88.3 | 97 | 84.8
25 | 0 | 0 | 0 | 0 | 0 | C=CC(=O)N1CC(=O)NC2CCCCC21 (centres unmarked) [PCM-0102717] | 112 | 100 | 105
26 | 0 | 0 | 0 | 0 | 0.3 | C=CC(=O)N1Cc2ccc(S(=O)(=O)N(C)C)cc2C1 [PCM-0102718] | 73.6 | 97.4 | 99.7
27 | 0 | 0.08 | 0 | 0 | 0 | C=CC(=O)NCC1(O)CCCC(C(F)(F)F)C1 (centres unmarked) [PCM-0102720] | 106 | 93.2 | 107
28 | 0 | 0.07 | 0 | 0.13 | 0 | C=CC(=O)N1CCCC(Oc2ncccc2F)C1 (centres unmarked) [PCM-0102725] | 80.3 | 108 | 109
